From ChEMBL document CHEMBL4334464, “From Phenylthiazoles to Phenylpyrazoles: Broadening the Antibacterial Spectrum toward Carbapenem-Resistant Bacteria” (J Med Chem, 2019)
≈ marks a conversion by molar mass, not a printed value. Calls of active or inactive are those of the source. The rule behind the calls is not given here.

system: Staphylococcus aureus; assay: Antibacterial activity against Methicillin-sensitive Staphylococcus aureus ATCC 6538 clinical isolates after 18 to 20 hrs in aerobic condition by CLSI protocol based broth microdilution assay; assay type: functional; conditions: not given

Structure (SMILES)	MIC
CCCCCC#Cc1ccc(-n2ncc(/C(C)=N/NC(=N)N)c2C)cc1	2 mg/L (≈ 5.71 µM)

system: Staphylococcus aureus; assay: Antibacterial activity against linezolid-resistant/Methicillin-resistant Staphylococcus aureus NRS119 clinical isolates after 18 to 20 hrs in aerobic condition by CLSI protocol based broth microdilution assay; assay type: functional; conditions: not given

Structure (SMILES)	MIC
CCCCCC#Cc1ccc(-n2ncc(/C(C)=N/NC(=N)N)c2C)cc1	2 mg/L (≈ 5.71 µM)

system: Staphylococcus aureus; assay: Antibacterial activity against Methicillin-resistant Staphylococcus aureus NRS385-USA500 clinical isolates after 18 to 20 hrs in aerobic condition by CLSI protocol based broth microdilution assay; assay type: functional; conditions: not given

Structure (SMILES)	MIC
CCCCCC#Cc1ccc(-n2ncc(/C(C)=N/NC(=N)N)c2C)cc1	2 mg/L (≈ 5.71 µM)

system: Staphylococcus aureus; assay: Antibacterial activity against Methicillin-resistant Staphylococcus aureus USA700-NRS386 clinical isolates after 18 to 20 hrs in aerobic condition by CLSI protocol based broth microdilution assay; assay type: functional; conditions: not given

Structure (SMILES)	MIC
CCCCCC#Cc1ccc(-n2ncc(/C(C)=N/NC(=N)N)c2C)cc1	2 mg/L (≈ 5.71 µM)

system: Staphylococcus aureus; assay: Antibacterial activity against vancomycin-resistant Staphylococcus aureus isolate 10 after 18 to 20 hrs in aerobic condition by CLSI-based broth microdilution assay; assay type: functional; conditions: not given

Structure (SMILES)	MIC
CCCCCC#Cc1ccc(-n2ncc(/C(C)=N/NC(=N)N)c2C)cc1	2 mg/L (≈ 5.71 µM)

system: Staphylococcus aureus; assay: Antibacterial activity against vancomycin-resistant Staphylococcus aureus isolate 12 after 18 to 20 hrs in aerobic condition by CLSI-based broth microdilution assay; assay type: functional; conditions: not given

Structure (SMILES)	MIC
CCCCCC#Cc1ccc(-n2ncc(/C(C)=N/NC(=N)N)c2C)cc1	2 mg/L (≈ 5.71 µM)

system: Staphylococcus epidermidis; assay: Antibacterial activity against Staphylococcus epidermidis NRS101 after 18 to 20 hrs in aerobic condition by CLSI-based broth microdilution assay; assay type: functional; conditions: not given

Structure (SMILES)	MIC
CCCCCC#Cc1ccc(-n2ncc(/C(C)=N/NC(=N)N)c2C)cc1	2 mg/L (≈ 5.71 µM)

system: Enterococcus faecalis; assay: Antibacterial activity against vancomycin-resistant Enterococcus faecalis ATCC 51299 clinical isolates after 18 to 20 hrs in aerobic condition by CLSI-based broth microdilution assay; assay type: functional; conditions: not given

Structure (SMILES)	MIC
CCCCCC#Cc1ccc(-n2ncc(/C(C)=N/NC(=N)N)c2C)cc1	2 mg/L (≈ 5.71 µM)

system: Enterococcus faecium; assay: Antibacterial activity against vancomycin-resistant Enterococcus faecium ATCC 700221 clinical isolates after 18 to 20 hrs in aerobic condition by CLSI-based broth microdilution assay; assay type: functional; conditions: not given

Structure (SMILES)	MIC
CCCCCC#Cc1ccc(-n2ncc(/C(C)=N/NC(=N)N)c2C)cc1	2 mg/L (≈ 5.71 µM)

system: Listeria monocytogenes; assay: Antibacterial activity against Listeria monocytogenes ATCC 19111 after 18 to 20 hrs in aerobic condition by CLSI-based broth microdilution assay; assay type: functional; conditions: not given

Structure (SMILES)	MIC
CCCCCC#Cc1ccc(-n2ncc(/C(C)=N/NC(=N)N)c2C)cc1	2 mg/L (≈ 5.71 µM)

system: Acinetobacter baumannii; assay: Antibacterial activity against Acinetobacter baumannii ATCC 19606 clinical isolates after 18 to 20 hrs in aerobic condition by CLSI-based broth microdilution assay; assay type: functional; conditions: ATCC 19606 = CIP 70.34 = JCM 6841

Structure (SMILES)	MIC
CCCCCC#Cc1ccc(-n2ncc(/C(C)=N/NC(=N)N)c2C)cc1	4 mg/L (≈ 11.4 µM)

system: Acinetobacter baumannii; assay: Antibacterial activity against Acinetobacter baumannii ATCC BAA 1141 clinical isolates after 18 to 20 hrs in aerobic condition by CLSI-based broth microdilution assay; assay type: functional; conditions: not given

Structure (SMILES)	MIC
CCCCCC#Cc1ccc(-n2ncc(/C(C)=N/NC(=N)N)c2C)cc1	4 mg/L (≈ 11.4 µM)

system: Acinetobacter baumannii; assay: Antibacterial activity against Acinetobacter baumannii NR 17785 clinical isolates after 18 to 20 hrs in aerobic condition by CLSI-based broth microdilution assay; assay type: functional; conditions: not given

Structure (SMILES)	MIC
CCCCCC#Cc1ccc(-n2ncc(/C(C)=N/NC(=N)N)c2C)cc1	8 mg/L (≈ 22.8 µM)

system: Escherichia coli; assay: Antibacterial activity against Escherichia coli BW25113 clinical isolates after 18 to 20 hrs in aerobic condition by CLSI-based broth microdilution assay; assay type: functional; conditions: not given

Structure (SMILES)	MIC
CCCCCC#Cc1ccc(-n2ncc(/C(C)=N/NC(=N)N)c2C)cc1	8 mg/L (≈ 22.8 µM)

system: Escherichia coli; assay: Antibacterial activity against Escherichia coli ATCC 35150 clinical isolates after 18 to 20 hrs in aerobic condition by CLSI-based broth microdilution assay; assay type: functional; conditions: not given

Structure (SMILES)	MIC
CCCCCC#Cc1ccc(-n2ncc(/C(C)=N/NC(=N)N)c2C)cc1	8 mg/L (≈ 22.8 µM)

system: not listed separately; assay: Antibacterial activity against Enterobacter cloacae subsp. cloacae ATCC BAA-1143 clinical isolates after 18 to 20 hrs in aerobic condition by CLSI-based broth microdilution assay; assay type: functional; conditions: not given

Structure (SMILES)	MIC
CCCCCC#Cc1ccc(-n2ncc(/C(C)=N/NC(=N)N)c2C)cc1	8 mg/L (≈ 22.8 µM)

system: Klebsiella pneumoniae; assay: Antibacterial activity against Klebsiella pneumoniae BAA-1144 clinical isolates after 18 to 20 hrs in aerobic condition by CLSI-based broth microdilution assay; assay type: functional; conditions: not given

Structure (SMILES)	MIC
CCCCCC#Cc1ccc(-n2ncc(/C(C)=N/NC(=N)N)c2C)cc1	16 mg/L (≈ 45.7 µM)

system: Salmonella enteritidis; assay: Antibacterial activity against Salmonella enteritidis ATCC 13076 clinical isolates after 18 to 20 hrs in aerobic condition by CLSI-based broth microdilution assay; assay type: functional, Salmonella enterica subsp. enterica serovar Enteritidis; conditions: Salmonella enterica

Structure (SMILES)	MIC
CCCCCC#Cc1ccc(-n2ncc(/C(C)=N/NC(=N)N)c2C)cc1	8 mg/L (≈ 22.8 µM)

system: Salmonella enteritidis; assay: Antibacterial activity against Salmonella enteritidis ATCC 14028 clinical isolates after 18 to 20 hrs in aerobic condition by CLSI-based broth microdilution assay; assay type: functional, Salmonella enterica subsp. enterica serovar Enteritidis; conditions: Salmonella enterica

Structure (SMILES)	MIC
CCCCCC#Cc1ccc(-n2ncc(/C(C)=N/NC(=N)N)c2C)cc1	16 mg/L (≈ 45.7 µM)

system: Salmonella typhimurium; assay: Antibacterial activity against Salmonella typhimurium ATCC 700720 after 18 to 20 hrs in aerobic condition by CLSI-based broth microdilution assay; assay type: functional, Salmonella enterica subsp. enterica serovar Typhimurium; conditions: Salmonella enterica

Structure (SMILES)	MIC
CCCCCC#Cc1ccc(-n2ncc(/C(C)=N/NC(=N)N)c2C)cc1	8 mg/L (≈ 22.8 µM)

system: Shigella flexneri; assay: Antibacterial activity against Shigella flexneri ATCC 9199 clinical isolates after 18 to 20 hrs in aerobic condition by CLSI-based broth microdilution assay; assay type: functional; conditions: not given

Structure (SMILES)	MIC
CCCCCC#Cc1ccc(-n2ncc(/C(C)=N/NC(=N)N)c2C)cc1	8 mg/L (≈ 22.8 µM)

system: Escherichia coli; assay: Antibacterial activity against carbapenem-resistant Escherichia coli BAA-2452 clinical isolates after 18 to 20 hrs in aerobic condition by CLSI-based broth microdilution assay; assay type: functional; conditions: not given

Structure (SMILES)	MIC
CCCCCC#Cc1ccc(-n2ncc(/C(C)=N/NC(=N)N)c2C)cc1	16 mg/L (≈ 45.7 µM)

system: Escherichia coli; assay: Antibacterial activity against carbapenem-resistant Escherichia coli BAA-2469 clinical isolates after 18 to 20 hrs in aerobic condition by CLSI-based broth microdilution assay; assay type: functional; conditions: not given

Structure (SMILES)	MIC
CCCCCC#Cc1ccc(-n2ncc(/C(C)=N/NC(=N)N)c2C)cc1	8 mg/L (≈ 22.8 µM)

system: Acinetobacter baumannii; assay: Antibacterial activity against carbapenem-resistant Acinetobacter baumannii ATCC BAA 1605 clinical isolates after 18 to 20 hrs in aerobic condition by CLSI-based broth microdilution assay; assay type: functional; conditions: not given

Structure (SMILES)	MIC
CCCCCC#Cc1ccc(-n2ncc(/C(C)=N/NC(=N)N)c2C)cc1	8 mg/L (≈ 22.8 µM)

system: Escherichia coli; assay: Inhibition of 6His tagged Escherichia coli UPPP expressed in Escherichia coli C41(DE3) cells preincubated for 15 mins followed by FPP substrate addition and measured after 20 mins by malachite green reagent based assay; conditions: not given

Structure (SMILES)	inhibition
CCCCCC#Cc1ccc(-n2ncc(/C(C)=N/NC(=N)N)c2C)cc1	inactive

system: Staphylococcus aureus; assay: Ratio of MBC to MIC for Methicillin-sensitive Staphylococcus aureus ATCC 6538 clinical isolates; assay type: functional; conditions: not given

Structure (SMILES)	Ratio
CCCCCC#Cc1ccc(-n2ncc(/C(C)=N/NC(=N)N)c2C)cc1	<=2

system: Staphylococcus aureus; assay: Ratio of MBC to MIC for Methicillin-sensitive Staphylococcus aureus NRS107 clinical isolates; assay type: functional; conditions: not given

Structure (SMILES)	Ratio
CCCCCC#Cc1ccc(-n2ncc(/C(C)=N/NC(=N)N)c2C)cc1	<=2

system: Streptococcus pneumoniae; assay: Ratio of MBC to MIC for cephalosporin-resistant Streptococcus pneumoniae ATCC 51916 clinical isolates; assay type: functional; conditions: not given

Structure (SMILES)	Ratio
CCCCCC#Cc1ccc(-n2ncc(/C(C)=N/NC(=N)N)c2C)cc1	<3

system: Acinetobacter baumannii; assay: Ratio of MBC to MIC for Acinetobacter baumannii ATCC 19606 clinical isolates; assay type: functional, ATCC 19606 = CIP 70.34 = JCM 6841; conditions: not given

Structure (SMILES)	Ratio
CCCCCC#Cc1ccc(-n2ncc(/C(C)=N/NC(=N)N)c2C)cc1	>=1

system: Acinetobacter baumannii; assay: Ratio of MBC to MIC for Acinetobacter baumannii ATCC BAA 1747 clinical isolates; assay type: functional; conditions: not given

Structure (SMILES)	Ratio
CCCCCC#Cc1ccc(-n2ncc(/C(C)=N/NC(=N)N)c2C)cc1	>=1

system: Acinetobacter baumannii; assay: Ratio of MBC to MIC for Acinetobacter baumannii NR 17785 clinical isolates; assay type: functional; conditions: not given

Structure (SMILES)	Ratio
CCCCCC#Cc1ccc(-n2ncc(/C(C)=N/NC(=N)N)c2C)cc1	>=1

system: Acinetobacter baumannii; assay: Ratio of MBC to MIC for Acinetobacter baumannii NR 17786 clinical isolates; assay type: functional; conditions: not given

Structure (SMILES)	Ratio
CCCCCC#Cc1ccc(-n2ncc(/C(C)=N/NC(=N)N)c2C)cc1	>=1

system: Escherichia coli; assay: Ratio of MBC to MIC for Escherichia coli ATCC 25922 clinical isolates; assay type: functional; conditions: not given

Structure (SMILES)	Ratio
CCCCCC#Cc1ccc(-n2ncc(/C(C)=N/NC(=N)N)c2C)cc1	>=1

system: Escherichia coli; assay: Ratio of MBC to MIC for Escherichia coli ATCC 35150 clinical isolates; assay type: functional; conditions: not given

Structure (SMILES)	Ratio
CCCCCC#Cc1ccc(-n2ncc(/C(C)=N/NC(=N)N)c2C)cc1	>=1

system: Enterobacter cloacae subsp. cloacae; assay: Ratio of MBC to MIC for Enterobacter cloacae subsp. cloacae ATCC BAA-1143 clinical isolates; assay type: functional; conditions: not given

Structure (SMILES)	Ratio
CCCCCC#Cc1ccc(-n2ncc(/C(C)=N/NC(=N)N)c2C)cc1	> 1

system: Klebsiella pneumoniae; assay: Ratio of MBC to MIC for Klebsiella pneumoniae BAA-1706 after 18 to 20 hrs in aerobic condition by CLSI-based broth microdilution assay; assay type: functional; conditions: not given

Structure (SMILES)	Ratio
CCCCCC#Cc1ccc(-n2ncc(/C(C)=N/NC(=N)N)c2C)cc1	>=1

system: Klebsiella pneumoniae; assay: Ratio of MBC to MIC for Klebsiella pneumoniae BAA-1144 clinical isolates; assay type: functional; conditions: not given

Structure (SMILES)	Ratio
CCCCCC#Cc1ccc(-n2ncc(/C(C)=N/NC(=N)N)c2C)cc1	>=1

system: Salmonella enterica; assay: Ratio of MBC to MIC for Salmonella enterica NR-170 clinical isolates; assay type: functional; conditions: not given

Structure (SMILES)	Ratio
CCCCCC#Cc1ccc(-n2ncc(/C(C)=N/NC(=N)N)c2C)cc1	>=1

system: Salmonella enteritidis; assay: Ratio of MBC to MIC for Salmonella enteritidis ATCC 13076 clinical isolates; assay type: functional, Salmonella enterica subsp. enterica serovar Enteritidis; conditions: not given

Structure (SMILES)	Ratio
CCCCCC#Cc1ccc(-n2ncc(/C(C)=N/NC(=N)N)c2C)cc1	>=1

system: Salmonella typhimurium; assay: Ratio of MBC to MIC for Salmonella typhimurium ATCC 700720 clinical isolates; assay type: functional, Salmonella enterica subsp. enterica serovar Typhimurium; conditions: not given

Structure (SMILES)	Ratio
CCCCCC#Cc1ccc(-n2ncc(/C(C)=N/NC(=N)N)c2C)cc1	>=1

system: Shigella flexneri; assay: Ratio of MBC to MIC for Shigella flexneri ATCC 9199 clinical isolates; assay type: functional; conditions: not given

Structure (SMILES)	Ratio
CCCCCC#Cc1ccc(-n2ncc(/C(C)=N/NC(=N)N)c2C)cc1	>=1

system: Pseudomonas aeruginosa; assay: Ratio of MBC to MIC for Pseudomonas aeruginosa ATCC 25619 clinical isolates; assay type: functional; conditions: not given

Structure (SMILES)	Ratio
CCCCCC#Cc1ccc(-n2ncc(/C(C)=N/NC(=N)N)c2C)cc1	>=1

system: Pseudomonas aeruginosa; assay: Ratio of MBC to MIC for Pseudomonas aeruginosa ATCC 15442 clinical isolates; assay type: functional; conditions: not given

Structure (SMILES)	Ratio
CCCCCC#Cc1ccc(-n2ncc(/C(C)=N/NC(=N)N)c2C)cc1	>=1

system: Pseudomonas aeruginosa; assay: microbe, parasite or virus in culture; conditions: ATCC 9027
Description: Antibacterial activity against Pseudomonas aeruginosa ATCC 9027 clinical isolates after 18 to 20 hrs in aerobic condition by CLSI-based broth microdilution assay

Structure (SMILES)	MIC
CCCCCC#Cc1ccc(-n2ncc(/C(C)=N/NC(=N)N)c2C)cc1	16 mg/L (≈ 45.7 µM)
